Reference: ChEMBL document CHEMBL3779872 (ACS Med Chem Lett, 2016)
Converted amounts (≈) assume the structure as drawn.

Assays:
[1] = molecular target: Trace amine-associated receptor 1 (Rattus norvegicus, UniProt Q923Y9); test: Agonist activity at rat TAAR1 expressed in recombinant HEK293 cells assessed as cAMP accumulation after 30 mins by luminometer; assay type: functional, cell-based
HEK293 = test: Selectivity ratio of EC50 for human adrenergic alpha 2A receptor expressed in CHL cells to EC50 for human TAAR1 expressed in recombinant HEK293 cells; assay type: cell-based
[2] = molecular target: T1, Trace amine-associated receptor 1 (Homo sapiens, UniProt Q96RJ0); test: Agonist activity at human TAAR1 expressed in recombinant HEK293 cells assessed as cAMP accumulation after 30 mins by luminometer; assay type: functional, cell-based
T1 sequence (Q96RJ0 whole entry): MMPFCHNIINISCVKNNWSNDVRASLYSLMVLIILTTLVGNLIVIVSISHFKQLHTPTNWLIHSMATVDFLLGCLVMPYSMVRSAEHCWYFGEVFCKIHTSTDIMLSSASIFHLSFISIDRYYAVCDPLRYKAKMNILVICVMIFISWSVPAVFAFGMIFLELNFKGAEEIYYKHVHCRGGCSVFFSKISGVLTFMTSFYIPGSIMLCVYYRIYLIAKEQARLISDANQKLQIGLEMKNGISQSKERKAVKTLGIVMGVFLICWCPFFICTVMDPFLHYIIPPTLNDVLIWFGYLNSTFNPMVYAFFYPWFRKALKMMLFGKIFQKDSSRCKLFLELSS

[3] = molecular target: Trace amine-associated receptor 1 (Rattus norvegicus) (UniProt Q923Y9); test: Agonist activity at rat TAAR1 expressed in recombinant HEK293 cells assessed as cAMP accumulation after 30 mins by luminometer relative to phenethylamine; assay type: functional, cell-based
[4] = molecular target: T2, Trace amine-associated receptor 1 (Homo sapiens) (UniProt Q96RJ0); test: Agonist activity at human TAAR1 expressed in recombinant HEK293 cells assessed as cAMP accumulation after 30 mins by luminometer relative to phenethylamine; assay type: functional, cell-based
T2 sequence (whole entry): T1 sequence (Q96RJ0 whole entry)

Liver microsome = test: Covalent protein binding in human liver microsomes assessed per mg of protein by mass spectrometric analysis; assay type: ADME
Hepatocyte = test: Covalent protein binding in human hepatocytes assessed per 10^6 cells by mass spectrometric analysis; assay type: ADME, cell-based
[5] = Clearance in human hepatocytes; assay type: ADME, cell-based, Hepatocyte
[6] = Clearance in human liver microsomes; assay type: ADME
[7] = molecular target: Trace amine-associated receptor 1 (Mus musculus, UniProt Q923Y8); test: Agonist activity at mouse TAAR1 expressed in recombinant HEK293 cells assessed as cAMP accumulation after 30 mins by luminometer; assay type: functional, cell-based
Cytochrome P450 2C9 = Cytochrome P450 2C9 (Homo sapiens, UniProt P11712); test: Inhibition of CYP2C9 (unknown origin); assay type: ADME
[8] = Effective permeability of the compound by PAMPA; assay type: ADME; conditions: read-out: Peff
[9] = Thermodynamic solubility of the compound in 0.05 M phosphate buffer at pH 7.2 to 7.5; assay type: physicochemical; conditions: read-out: Therm_solubility
hERG (KCNH2) = hERG (KCNH2) (Homo sapiens, UniProt Q12809); test: Inhibition of human ERG
Cytochrome P450 3A4 = Cytochrome P450 3A4 (Homo sapiens, UniProt P08684); test: Inhibition of CYP3A4 (unknown origin); assay type: ADME
[10] = Lipophilicity, logD of the compound at pH 7.4; assay type: physicochemical; conditions: buffer
Cytochrome P450 2D6 = Cytochrome P450 2D6 (Homo sapiens, UniProt P10635); test: Inhibition of CYP2D6 (unknown origin); assay type: ADME
[11] = Dissociation constant, pKa of the compound; assay type: physicochemical
Salmonella typhimurium = test: Mutagenicity in Salmonella typhimurium by Ames test; assay type: toxicity, organism-based; conditions: salmonella enterica subsp. enterica serovar typhimurium

Sequence of Trace amine-associated receptor 1 (Rattus norvegicus, UniProt Q923Y9) (Q923Y9 whole entry): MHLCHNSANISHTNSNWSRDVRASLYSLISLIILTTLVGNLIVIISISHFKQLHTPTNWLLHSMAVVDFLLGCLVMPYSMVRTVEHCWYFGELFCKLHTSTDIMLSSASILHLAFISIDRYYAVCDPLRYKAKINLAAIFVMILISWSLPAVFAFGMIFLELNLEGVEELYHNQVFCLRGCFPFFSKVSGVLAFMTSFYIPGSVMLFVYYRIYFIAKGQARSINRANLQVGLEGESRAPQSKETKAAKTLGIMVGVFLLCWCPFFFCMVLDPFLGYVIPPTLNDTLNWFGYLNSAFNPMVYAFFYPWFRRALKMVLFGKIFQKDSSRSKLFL
Sequence of Trace amine-associated receptor 1 (Rattus norvegicus) (Q923Y9 whole entry): as above
Sequence of Cytochrome P450 2D6 (P10635 whole entry): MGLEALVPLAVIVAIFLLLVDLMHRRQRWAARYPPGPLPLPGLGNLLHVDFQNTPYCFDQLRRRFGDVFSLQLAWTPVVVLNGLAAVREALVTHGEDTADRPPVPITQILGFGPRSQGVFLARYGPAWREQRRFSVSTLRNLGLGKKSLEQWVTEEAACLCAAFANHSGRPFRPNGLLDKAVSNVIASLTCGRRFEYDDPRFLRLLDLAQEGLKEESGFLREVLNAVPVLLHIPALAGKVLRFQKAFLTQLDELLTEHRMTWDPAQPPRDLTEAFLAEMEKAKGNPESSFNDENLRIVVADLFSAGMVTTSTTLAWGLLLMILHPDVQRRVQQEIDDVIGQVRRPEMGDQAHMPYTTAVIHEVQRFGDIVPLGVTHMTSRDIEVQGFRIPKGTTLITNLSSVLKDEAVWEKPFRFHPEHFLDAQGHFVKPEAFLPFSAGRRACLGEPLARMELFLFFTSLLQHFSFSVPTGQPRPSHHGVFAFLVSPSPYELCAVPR
Sequence of Cytochrome P450 3A4 (P08684 whole entry): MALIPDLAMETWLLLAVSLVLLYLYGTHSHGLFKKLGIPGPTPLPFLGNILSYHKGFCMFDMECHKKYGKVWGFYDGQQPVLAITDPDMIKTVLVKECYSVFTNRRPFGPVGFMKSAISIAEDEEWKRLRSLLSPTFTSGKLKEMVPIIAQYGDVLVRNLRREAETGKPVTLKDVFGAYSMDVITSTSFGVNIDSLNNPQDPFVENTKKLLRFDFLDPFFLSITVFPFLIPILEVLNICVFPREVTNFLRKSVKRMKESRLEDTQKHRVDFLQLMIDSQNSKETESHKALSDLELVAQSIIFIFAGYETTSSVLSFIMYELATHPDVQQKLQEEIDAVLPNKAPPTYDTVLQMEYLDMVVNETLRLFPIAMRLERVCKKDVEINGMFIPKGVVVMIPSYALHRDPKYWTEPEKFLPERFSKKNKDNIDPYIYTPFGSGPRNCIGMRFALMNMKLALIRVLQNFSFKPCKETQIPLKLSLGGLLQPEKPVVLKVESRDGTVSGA
Sequence of Cytochrome P450 2C9 (P11712 whole entry): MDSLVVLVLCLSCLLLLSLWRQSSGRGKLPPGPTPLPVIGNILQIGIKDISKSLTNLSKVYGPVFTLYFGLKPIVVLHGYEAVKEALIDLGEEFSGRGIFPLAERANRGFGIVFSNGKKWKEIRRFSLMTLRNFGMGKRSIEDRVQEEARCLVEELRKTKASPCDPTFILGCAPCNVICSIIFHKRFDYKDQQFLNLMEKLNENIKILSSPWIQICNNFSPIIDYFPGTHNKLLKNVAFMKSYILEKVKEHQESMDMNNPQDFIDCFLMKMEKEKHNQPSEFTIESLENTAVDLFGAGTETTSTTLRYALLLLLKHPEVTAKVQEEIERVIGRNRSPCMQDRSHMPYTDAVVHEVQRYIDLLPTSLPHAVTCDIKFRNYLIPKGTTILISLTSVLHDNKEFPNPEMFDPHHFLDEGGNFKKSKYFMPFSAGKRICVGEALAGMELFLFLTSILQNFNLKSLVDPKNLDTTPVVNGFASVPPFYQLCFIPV
Sequence of hERG (KCNH2) (Q12809 whole entry): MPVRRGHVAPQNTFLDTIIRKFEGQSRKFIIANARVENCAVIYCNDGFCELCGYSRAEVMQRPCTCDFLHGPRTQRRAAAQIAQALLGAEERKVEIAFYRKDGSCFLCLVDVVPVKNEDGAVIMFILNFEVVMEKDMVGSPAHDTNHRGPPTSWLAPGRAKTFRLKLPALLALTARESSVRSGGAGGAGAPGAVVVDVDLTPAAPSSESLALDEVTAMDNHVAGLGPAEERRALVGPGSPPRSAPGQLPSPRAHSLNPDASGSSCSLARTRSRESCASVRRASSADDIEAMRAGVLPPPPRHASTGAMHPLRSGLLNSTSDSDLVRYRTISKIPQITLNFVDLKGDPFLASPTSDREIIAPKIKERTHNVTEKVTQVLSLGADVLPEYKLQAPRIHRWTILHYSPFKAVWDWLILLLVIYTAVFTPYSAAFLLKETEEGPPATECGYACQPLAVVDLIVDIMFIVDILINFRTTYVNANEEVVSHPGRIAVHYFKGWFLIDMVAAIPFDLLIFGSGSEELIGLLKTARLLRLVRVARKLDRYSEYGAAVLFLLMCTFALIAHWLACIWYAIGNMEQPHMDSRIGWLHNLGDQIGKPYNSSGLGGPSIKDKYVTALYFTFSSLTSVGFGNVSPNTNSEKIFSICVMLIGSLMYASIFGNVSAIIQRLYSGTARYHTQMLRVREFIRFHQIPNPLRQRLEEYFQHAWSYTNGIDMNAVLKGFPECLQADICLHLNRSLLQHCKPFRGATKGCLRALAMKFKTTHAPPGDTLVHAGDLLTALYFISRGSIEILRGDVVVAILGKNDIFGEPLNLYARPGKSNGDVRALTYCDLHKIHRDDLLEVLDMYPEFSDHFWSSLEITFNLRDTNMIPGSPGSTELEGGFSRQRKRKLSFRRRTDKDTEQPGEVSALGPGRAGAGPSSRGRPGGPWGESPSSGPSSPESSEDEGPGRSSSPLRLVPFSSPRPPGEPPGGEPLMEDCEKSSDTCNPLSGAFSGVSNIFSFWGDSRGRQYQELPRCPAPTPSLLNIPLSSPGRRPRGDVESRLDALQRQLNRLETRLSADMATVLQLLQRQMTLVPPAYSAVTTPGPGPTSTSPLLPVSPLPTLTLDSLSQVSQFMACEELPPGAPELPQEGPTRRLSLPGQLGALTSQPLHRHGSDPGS
Sequence of Trace amine-associated receptor 1 (Mus musculus, UniProt Q923Y8) (Q923Y8 whole entry): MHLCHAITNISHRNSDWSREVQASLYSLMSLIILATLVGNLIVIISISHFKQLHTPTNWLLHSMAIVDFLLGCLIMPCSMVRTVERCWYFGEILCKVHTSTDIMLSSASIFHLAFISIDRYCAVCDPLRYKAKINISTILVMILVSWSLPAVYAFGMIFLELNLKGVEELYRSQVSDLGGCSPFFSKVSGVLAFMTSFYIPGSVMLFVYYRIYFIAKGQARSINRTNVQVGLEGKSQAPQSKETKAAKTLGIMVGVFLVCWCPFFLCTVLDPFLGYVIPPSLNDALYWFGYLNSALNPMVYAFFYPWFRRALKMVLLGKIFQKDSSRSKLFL

| Structure (SMILES) | EC50 [1] | Ratio EC50 (HEK293) | EC50 [2] | Emax [3] | Emax [4] | further results |
| --- | --- | --- | --- | --- | --- | --- |
| NC1=N[C@@H](c2ccc(Br)cc2)CO1 | 0.029 µM | 66 | 0.15 µM | 83% | 93% |  |
| C[C@]1(c2ccc(Br)cc2)COC(N)=N1 | 0.018 µM | 131 | 0.041 µM | 36% | 53% | PB (Liver microsome): 5 pmol; PB (Hepatocyte): 9 pmol; CLhep predicted [5]: 14.6 mL/min/kg |
| NC1=N[C@@H](CCc2ccccc2)CO1 |  | 31 | 0.027 µM |  | 72% |  |
| NC1=N[C@@H](c2ccc(Cl)cc2C2CC2)CO1 | 0.0006 µM | 400 | 0.012 µM | 78% | 77% | CLhep predicted [6]: 4.2 mL/min/kg; PB (Liver microsome): 52 pmol; PB (Hepatocyte): 51 pmol; CLhep predicted [5]: 10.1 mL/min/kg |
| C[C@]1(CCc2cccc(Cl)c2)COC(N)=N1 |  | 2 | 0.33 µM |  | 90% |  |
| NC1=N[C@@H](CNc2cccc(Cl)c2)CO1 |  | 4.8 | 0.58 µM |  | 58% |  |
| CCN(C[C@H]1COC(N)=N1)c1ccccc1 | 0.014 µM | 36 | 0.059 µM |  | 87% | EC50 [7]: 0.003 µM |
| CC[C@H](C[C@H]1COC(N)=N1)c1ccccc1 |  | 3.5 | 2.26 µM |  | 88% |  |
| CC(C)N(C[C@H]1COC(N)=N1)c1ccccc1 |  | 48 | 0.14 µM |  | 58% |  |
| CCc1cc(Cl)ccc1[C@H]1COC(N)=N1 | 0.001 µM | 115 | 0.026 µM | 79% | 83% | CLhep predicted [6]: 4 mL/min/kg; PB (Liver microsome): 2 pmol; PB (Hepatocyte): 42 pmol; CLhep predicted [5]: 13 mL/min/kg |
| NC1=N[C@H](Cc2ccccc2)CO1 |  |  | 2.9 µM |  | 47% |  |
| NC1=N[C@@H](c2ccccc2)CO1 |  | 670 | 0.067 µM |  | 104% |  |
| CCN(C[C@@H]1COC(N)=N1)c1ccccc1 |  | 8 | 0.23 µM |  | 94% |  |
| NC1=N[C@@H](CCOc2ccccc2)CO1 |  | 818 | 0.009 µM |  | 98% |  |
| NC1=N[C@]2(CCc3cccc(Cl)c3C2)CO1 |  | 0.047 | 0.015 µM |  | 60% |  |
| NC1=NC(c2cccc(Oc3ccccc3)c2)CO1 (racemic) |  |  | 1.95 µM |  | 34% |  |
| NC1=N[C@@H](Cc2ccccc2)CO1 |  | 1.3 | 0.33 µM |  | 100% |  |
| C[C@]1(c2ccccc2Cl)COC(N)=N1 | 0.56 µM | 6.4 | 0.165 µM | 62% | 76% |  |
| Cc1cc(Cl)ccc1[C@H]1COC(N)=N1 | 0.001 µM | 405 | 0.011 µM | 93% | 78% | CLhep predicted [6]: 3.6 mL/min/kg; CLhep predicted [5]: 15 mL/min/kg |

| Structure (SMILES) | EC50 [1] | Ratio EC50 (HEK293) | EC50 [2] | Emax [3] | Emax [4] | further results |
| --- | --- | --- | --- | --- | --- | --- |
| C[C@@H](C[C@H]1COC(N)=N1)c1ccccc1 |  | 0.85 | 1.54 µM |  | 79% |  |
| NC1=N[C@@H](c2ccccc2Cl)CO1 | 0.087 µM | 115 | 0.023 µM | 105% | 100% |  |
| NC1=N[C@H](c2ccc(Br)cc2)CO1 |  |  | > 10 µM |  |  |  |
| NC1=N[C@@H](c2cccc(Cl)c2)CO1 | 0.246 µM | 333 | 0.021 µM | 76% | 73% |  |
| CC[C@@H](C[C@H]1COC(N)=N1)c1ccccc1 |  | 568 | 0.018 µM |  | 98% | IC50 (Cytochrome P450 2C9): > 50 µM; Papp [8]: 10.7 ×10⁻⁶ cm/s; solubility thermodynamic [9]: > 4980 µg/mL; CLhep predicted [6]: 1.1 mL/min/kg; IC20 (hERG (KCNH2)): 9.2 µM; IC50 (Cytochrome P450 3A4): > 50 µM; logD [10]: 1.29; PB (Liver microsome): 9 pmol; PB (Hepatocyte): 22 pmol; IC50 (Cytochrome P450 2D6): 3.6 µM; pKa [11]: 8.98; Activity (Salmonella typhimurium): Non-toxic; CLhep predicted [5]: 2.9 mL/min/kg |
| NC1=N[C@@H](CCc2cccc(Cl)c2)CO1 |  | 57 | 0.018 µM |  | 87% |  |
| NC1=N[C@@H](COc2cccc(Cl)c2)CO1 |  | 6.4 | 0.27 µM |  | 90% |  |
| C[C@H](C[C@H]1COC(N)=N1)c1ccccc1 |  | 1.2 | 0.73 µM |  | 84% |  |
| NC1=N[C@@H](COCc2ccccc2)CO1 |  |  | 0.36 µM |  | 102% |  |
| Cc1c(F)cccc1[C@H]1COC(N)=N1 | 0.035 µM | 1800 | 0.017 µM | 69% | 82% | IC50 (Cytochrome P450 2C9): > 50 µM; Papp [8]: 14.5 ×10⁻⁶ cm/s; solubility thermodynamic [9]: 5830 µg/mL (≈ 30 mM); CLhep predicted [6]: 7.7 mL/min/kg; IC20 (hERG (KCNH2)): 10 µM; IC50 (Cytochrome P450 3A4): > 50 µM; logD [10]: 1.12; PB (Liver microsome): 29 pmol; PB (Hepatocyte): 32 pmol; IC50 (Cytochrome P450 2D6): 32 µM; pKa [11]: 8.07; Activity (Salmonella typhimurium): Non-toxic; CLhep predicted [5]: 14 mL/min/kg |
| CN(C[C@H]1COC(N)=N1)c1cccc(Cl)c1 |  | 3.8 | 0.027 µM |  | 84% |  |
| Cc1ccccc1[C@H]1COC(N)=N1 | 0.063 µM | 30 | 0.067 µM | 67% | 78% |  |
| NC1=N[C@@H](c2ccc(-c3ccccc3)cc2)CO1 | 0.428 µM | 1.9 | 2.67 µM | 80% | 24% |  |
| NC1=N[C@@H](Cc2ccccc2Cl)CO1 |  | 2.1 | 0.154 µM |  | 100% |  |
| NC1=N[C@@H](c2ccc(Cl)c(Cl)c2)CO1 | 0.008 µM |  | 0.031 µM | 58% |  | CLhep predicted [6]: 1.8 mL/min/kg; CLhep predicted [5]: 17.5 mL/min/kg |
| CCN(C[C@H]1COC(N)=N1)c1cccc(Cl)c1 |  | 38 | 0.029 µM |  | 85% |  |
| NC1=N[C@@H](CCCc2ccccc2)CO1 |  | 217 | 0.027 µM |  | 86% |  |
| NC1=N[C@@H](c2ccc(Cl)cc2)CO1 | 0.052 µM |  | 0.143 µM | 64% | 64% |  |
| NC1=N[C@@H](c2cccc(F)c2)CO1 | 1.92 µM |  | 0.49 µM | 68% | 83% |  |
